Laboratory results as given in patent publication US20130245598A1, “PHOTOACTIVE VITAMIN NANOPARTICLES FOR THE TREATMENT OF CHRONIC WOUNDS” (priority 2010, published 2013).
Converted amounts (≈) assume the structure as drawn.

How the values were obtained:
[1] = cited from earlier work
[2] = cited from the MSDS; cited from earlier work
Water solubility = type: physicochemical
DNA = DNA binding constant
E. coli = assay: microbe, parasite or virus in culture; conditions: Escherichia coli, light or radiation study, read-out: LD50 E. coli Irradiated
[3] = Singlet oxygen study using ADPA as singlet oxygen sensor; type: physicochemical; conditions: after 15 minutes of irradiation
plasmid DNA = assay: Photocleavage of plasmid DNA (ethidium bromide stained agarose gel); type: biochemical; conditions: irradiation with visible light (λ>395 nm); 120 μM plasmid DNA; 25 and 50 μM riboflavin; 30 min incubation, 30 min irradiation
Source text: From the left: Lane 1: DNA only, dark. Lane 2: DNA only, irradiated.

Source text for Human Skin: Toxicity of the formulations towards human skin cells is examined by previously published methods.

Structure (SMILES)	LD50 Human Skin Dark (Human Skin; dark)	LD50 Human Skin Irradiated (Human Skin; irradiated)	water solubility [1]	LD50 Acute Oral Toxicity [2]	concentration showing precipitation in water (Water solubility)	DNA binding constant Kb (DNA)	LD50 (E. coli)	Production of singlet oxygen [3]	Photocleavage of plasmid DNA from Form I (supercoiled) to Form II (nicked) (plasmid DNA)
CC1=C(C/C=C(\C)CCC[C@H](C)CCC[C@H](C)CCCC(C)C)C(=O)c2ccccc2C1=O [Phylloquinone, phylloquinone]	No Effect	18,779 mg/Kg	does not dissolve in water	25,000 mg/Kg					
Cc1cc2nc3c(=O)[nH]c(=O)nc-3n(C[C@H](O)[C@H](O)[C@H](O)CO)c2cc1C [Riboflavin, 7,8-dimethyl-10-ribityl-isoalloxazine]			0.1 mg/mL (≈ 266 µM)		250 μm	> 10^4 M^−1	85 mg/kg	capable of producing a large quantity of singlet oxygen	can cleave DNA
